In ChEMBL document CHEMBL5042513, “Discovery of 2H-chromone-4-one based sulfonamide derivatives as potent retinoic acid receptor-related orphan receptor γt inverse agonists” (Eur J Med Chem, 2022):
pIC50: −log10 of the molar value.

Experiments:
[1] = Lipophilicity, logD of the compound at pH 7.4; conditions: buffer
[2] = Metabolic stability in human liver microsomes assessed as parent compound remaining level at 10 uM in presence of NADPH incubated for 60 mins by HPLC-MS/MS analysis
in vitro [3] = conditions: human, liver microsomes
Description: Metabolic stability in human liver microsomes assessed as half life at 10 uM in presence of NADPH by HPLC-MS/MS analysis

in vitro [4] = conditions: human, liver microsomes; remark: listed apart in the source
Description: Metabolic stability in human liver microsomes assessed as intrinsic clearance at 10 uM in presence of NADPH by HPLC-MS/MS analysis

[5] = biological target: T1, Nuclear receptor ROR-gamma (Homo sapiens, UniProt P51449)
T1 sequence (P51449 whole entry): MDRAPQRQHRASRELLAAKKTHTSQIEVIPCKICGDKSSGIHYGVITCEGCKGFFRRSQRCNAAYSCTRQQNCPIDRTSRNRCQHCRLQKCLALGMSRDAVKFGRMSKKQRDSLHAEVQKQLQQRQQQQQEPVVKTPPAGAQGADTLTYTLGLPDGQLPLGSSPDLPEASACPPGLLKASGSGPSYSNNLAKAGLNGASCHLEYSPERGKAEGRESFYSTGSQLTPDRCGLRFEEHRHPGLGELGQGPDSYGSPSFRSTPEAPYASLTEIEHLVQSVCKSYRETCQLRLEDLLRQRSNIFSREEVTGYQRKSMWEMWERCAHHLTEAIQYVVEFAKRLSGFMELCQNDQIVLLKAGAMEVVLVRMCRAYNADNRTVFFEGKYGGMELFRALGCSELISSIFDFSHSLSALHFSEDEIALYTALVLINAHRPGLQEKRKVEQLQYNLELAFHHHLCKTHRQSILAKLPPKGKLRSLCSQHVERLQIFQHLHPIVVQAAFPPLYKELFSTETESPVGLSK
Description: Inverse agonist activity at RORgammat (unknown origin) transfected in human Jurkat cells assessed as inhibition of RORgammat transcriptional activity incubated for 8 hrs by luciferase reporter gene assay

[6] = biological target: T1, Nuclear receptor ROR-gamma; assay: Displacement of BODIPY from APC-labelled RORgammat LBD (unknown origin) incubated for 1 hrs by binding assay
in vivo [7] = conditions: mouse, iv, 0.3 mg/kg
in vivo [8] = conditions: mouse, iv, 0.3 mg/kg; remark: listed apart in the source
in vivo [9] = conditions: mouse, po, 1 mg/kg
in vivo [10] = conditions: mouse, iv, 0.3 mg/kg; remark: listed apart in the source
in vivo [11] = conditions: mouse, po, 1 mg/kg; remark: listed apart in the source
Mus musculus [12] = species: Mus musculus; assay: animal or person; conditions: BALB/c, po, 312 h, read-out: INH
Description: Protection against imiquimod-induced psoriasis model of BALB/c mouse assessed as inhibition of psoriasis clinical score at 20 mg/kg, po administered for 13 days

in vivo [13] = conditions: mouse, po, 1 mg/kg; remark: listed apart in the source
in vivo [14] = conditions: mouse, po, 1 mg/kg; remark: listed apart in the source
in vivo [15] = conditions: mouse, iv, 0.3 mg/kg; remark: listed apart in the source
in vivo [16] = conditions: mouse, iv, 0.3 mg/kg; remark: listed apart in the source
in vivo [17] = conditions: mouse, po, 1 mg/kg; remark: listed apart in the source
Mus musculus [18] = species: Mus musculus; assay: animal or person; conditions: BALB/c, po, 312 h, read-out: INH; remark: listed apart in the source
Description: Protection against imiquimod-induced psoriasis model of BALB/c mouse assessed as inhibition of psoriasis clinical score at 10 mg/kg, po administered for 13 days

in vivo [19] = conditions: mouse, iv, 0.3 mg/kg; remark: listed apart in the source
in vivo [20] = conditions: mouse, iv, 0.3 mg/kg; remark: listed apart in the source
in vivo [21] = conditions: mouse, po, 1 mg/kg; remark: listed apart in the source

## CCc1ccc(NS(=O)(=O)c2ccc3c(c2)C(=O)CC(C2CCOCC2)O3)cc1 (stereo unspecified)
[1]
  logD: 2.67

## CCc1ccc(N(CC(C)C)S(=O)(=O)c2ccc3c(c2)C(F)CC(C2CCOCC2)O3)cc1 (stereo unspecified)
[1]
  logD: 5.02

## CCc1ccc(N(C2CCC2)S(=O)(=O)c2ccc3c(c2)C(=O)CC(C2CCOCC2)O3)cc1 (stereo unspecified)
[1]
  logD: 3.78

## CCc1ccc(N(CC(C)C)S(=O)(=O)c2ccc3cc(OCC4CCOCC4)c(C(=O)OC)cc3c2)cc1
[1]
  logD: 6.09

## CC(C)CN(c1cccc(F)c1)S(=O)(=O)c1ccc2c(c1)C(=O)CC(C1CCOCC1)O2 (stereo unspecified)
[1]
  logD: 3.5

## CCc1ccc(N(Cc2ccccc2)S(=O)(=O)c2ccc3c(c2)C(=O)CC(C2CCOCC2)O3)cc1 (stereo unspecified)
[1]
  logD: 4.84

## CCc1ccc(N(CC2CC2)S(=O)(=O)c2ccc3c(c2)C(=O)CC(C2CCOCC2)O3)cc1 (stereo unspecified)
[2]
  remaining at 1 h, 10 µM: 23%
[1]
  logD: 3.77
In vitro [3]
  half-life at 10 µM: 22.3 min
In vitro [4]
  CLint scaled at 10 µM: 55.8 mL/min/kg

## CCc1ccc(N(CC(C)C)S(=O)(=O)c2ccc3c(c2)C(=O)CC(C2CCN(C(=O)OC(C)(C)C)CC2)O3)cc1 (stereo unspecified)
[5]
  pIC50: < 5.00
[6]
  pIC50: < 5.00
[1]
  logD: 5.1

## Cc1ccc(NS(=O)(=O)c2ccc3c(c2)C(=O)CC(C2CCOCC2)O3)c(C)c1 (stereo unspecified)
[1]
  logD: 2.75

## CCc1ccc(N(CC(C)C)S(=O)(=O)c2ccc(OCC3CCOCC3)c(CO)c2)cc1 [GSK2981278]
[2]
  remaining at 1 h, 10 µM: 0.2%
In vitro [4]
  CLint scaled at 10 µM: 1610 mL/min/kg

## CCc1ccc(N(CC(C)C)S(=O)(=O)c2ccc3c(c2)C(=O)CC(CC2CCOCC2)O3)cc1 (stereo unspecified)
[1]
  logD: 4.53

## CCc1ccc(N(CC(C)C)S(=O)(=O)c2ccc3c(c2)C(=O)CC(C(C)C2CCOCC2)O3)cc1 (stereo unspecified)
[1]
  logD: 4.93

## Cc1nc(N2CCOCC2)ccc1N(CC(C)C)S(=O)(=O)c1ccc2c(c1)C(=O)CC(C1CCOCC1)O2 (stereo unspecified)
In vivo [7]
  AUC(0-t) at 24 h: 135 ng·h/mL
In vivo [8]
  Cmax at 24 h: 75 ng/mL
In vivo [9]
  Tmax at 24 h: 95.4 min
In vivo [10]
  half-life at 24 h: 56.4 min
In vivo [11]
  Cmax at 24 h: 82 ng/mL
Mus musculus [12]
  inhibition in vivo at 20 mg/kg: 77.7%
In vivo [13]
  AUC(0-t) at 24 h: 212 ng·h/mL
In vivo [14]
  AUC(0-inf) at 24 h: 219 ng·h/mL
[2]
  remaining at 1 h, 10 µM: 50.2%
In vivo [15]
  Tmax at 24 h: 61.2 min
In vivo [16]
  clearance at 24 h: 30.2 mL/min/kg
[1]
  logD: 3.04
In vivo [17]
  half-life at 24 h: 88.2 min
Mus musculus [18]
  inhibition in vivo at 10 mg/kg: 54.5%
In vivo [19]
  AUC(0-inf) at 24 h: 140 ng·h/mL
In vivo [20]
  Vd at 24 h: 1.62 L/kg
In vitro [3]
  half-life at 10 µM: 59 min
In vivo [21]
  bioavailability at 24 h: 47%
In vitro [4]
  CLint scaled at 10 µM: 21.1 mL/min/kg

## CCc1ccc(N(CC(C)C)S(=O)(=O)c2ccc3cc(OCC4CCOCC4)c(C(=O)O)cc3c2)cc1
[5]
  pIC50: < 5.00
[6]
  pIC50: < 5.00
[1]
  logD: 1.77

## CC(C)CN(c1ccc(F)cc1F)S(=O)(=O)c1ccc2c(c1)C(=O)CC(C1CCOCC1)O2 (stereo unspecified)
[1]
  logD: 3.62

## CC(C)CN(c1ccc(F)cc1)S(=O)(=O)c1ccc2c(c1)C(=O)CC(C1CCOCC1)O2 (stereo unspecified)
[2]
  remaining at 1 h, 10 µM: 0.2%
[1]
  logD: 3.48
In vitro [3]
  half-life at 10 µM: 0.7 min
In vitro [4]
  CLint scaled at 10 µM: 1760 mL/min/kg

## CCc1ccc(N(CC(C)C)S(=O)(=O)c2ccc3c(c2)C(=O)CC(C2CCN(S(C)(=O)=O)CC2)O3)cc1 (stereo unspecified)
[1]
  logD: 3.31

## CCc1ccc(N(CC(C)C)S(=O)(=O)c2ccc3cc(OCC4CCOCC4)c(CO)cc3c2)cc1
[1]
  logD: 5.1

## CC(C)CN(Cc1ccccc1C(F)(F)F)S(=O)(=O)c1ccc2c(c1)C(=O)CC(C1CCOCC1)O2 (stereo unspecified)
[1]
  logD: 4.32

## CC(C)CN(C1CCc2ccc(F)cc21)S(=O)(=O)c1ccc2c(c1)C(=O)CC(C1CCOCC1)O2 (stereo unspecified)
[1]
  logD: 4.03

## CC(C)CN(c1cc2ccccc2s1)S(=O)(=O)c1ccc2c(c1)C(=O)CC(C1CCOCC1)O2 (stereo unspecified)
[1]
  logD: 4.01

## CC(C)CN(c1ccccc1F)S(=O)(=O)c1ccc2c(c1)C(=O)CC(C1CCOCC1)O2 (stereo unspecified)
[1]
  logD: 3.44

## O=C1CC(C2CCOCC2)Oc2ccc(S(=O)(=O)N3CCCC3c3ccccc3C(F)(F)F)cc21 (stereo unspecified)
[1]
  logD: 3.5

## CC(C)CN(c1ccc(N(C)C)cc1)S(=O)(=O)c1ccc2c(c1)C(=O)CC(C1CCOCC1)O2 (stereo unspecified)
[2]
  remaining at 1 h, 10 µM: 11.5%
[1]
  logD: 3.6
In vitro [3]
  half-life at 10 µM: 12.8 min
In vitro [4]
  CLint scaled at 10 µM: 98.5 mL/min/kg

## CCc1ccc(N(CC(C)C)S(=O)(=O)c2ccc(OCC3CCOCC3)c3c2CCCC3=O)cc1
[1]
  logD: 4.84

## CCS(=O)(=O)c1ccc(CNS(=O)(=O)c2ccc3c(c2)C(=O)CC(C2CCOCC2)O3)nc1 (stereo unspecified)
[5]
  pIC50: < 5.00
[6]
  pIC50: < 5.00
[1]
  logD: 0.32

## CCc1ccc(N(C2COC2)S(=O)(=O)c2ccc3c(c2)C(=O)CC(C2CCOCC2)O3)cc1 (stereo unspecified)
[5]
  pIC50: < 5.00
[6]
  pIC50: < 5.00
[1]
  logD: 2.72

## CCc1ccc(N(CC(C)C)S(=O)(=O)c2ccc3oc(C4CCOCC4)cc(=O)c3c2)cc1
[1]
  logD: 4.5

## CCc1ccc(N(CC(C)C)S(=O)(=O)c2ccc3c(c2)C(=O)N(C2CCOCC2)C3)cc1
[1]
  logD: 3.64

## Cc1ccc(N(C2CCC2)S(=O)(=O)c2ccc3c(c2)C(=O)CC(C2CCOCC2)O3)c(C)c1 (stereo unspecified)
[2]
  remaining at 1 h, 10 µM: 4.5%
[1]
  logD: 3.86
In vitro [3]
  half-life at 10 µM: 6.2 min
In vitro [4]
  CLint scaled at 10 µM: 202 mL/min/kg

## CCc1ccc(N(CC(C)C)S(=O)(=O)c2ccc3cc(OCC4CCOCC4)c(C(=O)OCC4CCOCC4)cc3c2)cc1
[1]
  logD: 6.34

## CCc1ccc(N(CC(C)C)S(=O)(=O)c2ccc3c(c2)C(=O)CC(C2(C)CCOCC2)O3)cc1 (stereo unspecified)
[1]
  logD: 4.71

## CCc1ccc2c(c1)CC(C)CN2S(=O)(=O)c1ccc2c(c1)C(=O)CC(C1CCOCC1)O2 (stereo unspecified)
[5]
  pIC50: < 5.00
[6]
  pIC50: < 5.00
[1]
  logD: 3.77

## CC(C)CN(c1ccc(C(C)(C)C)cc1)S(=O)(=O)c1ccc2c(c1)C(=O)CC(C1CCOCC1)O2 (stereo unspecified)
[1]
  logD: 4.97

## CCc1ccc(N(CC(C)C)S(=O)(=O)c2ccc3c(c2)C(=O)CC(C2CCNCC2)O3)cc1 (stereo unspecified)
[1]
  logD: 2.21

## CCc1ccc(N(CC(C)C)S(=O)(=O)c2ccc3c(c2)C(=O)CC(C2CCN(C(=O)C4CCCC4)CC2)O3)cc1 (stereo unspecified)
[1]
  logD: 5.13

## CCc1ccc(N(CC(F)(F)F)S(=O)(=O)c2ccc3c(c2)C(=O)CC(C2CCOCC2)O3)cc1 (stereo unspecified)
[1]
  logD: 3.97

## CCc1ccc(N(CC(C)C)S(=O)(=O)c2ccc3c(c2)C(=O)CC(C2CCN(S(=O)(=O)C4CCCC4)CC2)O3)cc1 (stereo unspecified)
[1]
  logD: 4.75

## CCc1ccc(N(CC2CCC2)S(=O)(=O)c2ccc3c(c2)C(=O)CC(C2CCOCC2)O3)cc1 (stereo unspecified)
[1]
  logD: 4.1

## CC(C)CN(c1ccc(C#N)cc1)S(=O)(=O)c1ccc2c(c1)C(=O)CC(C1CCOCC1)O2 (stereo unspecified)
[1]
  logD: 3.16
